Measured values published in the supplement of paper PMC13380429.
Counter-ions that a name gives are not always drawn.

What was measured:
Settings in all cases: 72 h
[1] = tested on: Calu-3; assay: relative viability EC50 (midpoint between 100% and the lowest measured viability); higher = less toxic
[2] = tested on: U2OS; assay: as above
[3] = tested on: Vero E6; assay: as above
[4] = tested on: Caco-2; assay: as above
[5] = tested on: HepG2; assay: as above
[6] = tested on: Calu-3; assay: cell viability relative to DMSO; higher = less toxic
[7] = tested on: U2OS; assay: as above
[8] = tested on: Vero E6; assay: as above
[9] = tested on: Caco-2; assay: as above
[10] = tested on: HepG2; assay: as above
[11] = tested on: Calu-3; assay: drug sensitivity score (DSS) for viability; higher = more toxic; extreme values may be limits of the assay
[12] = tested on: U2OS; assay: as above
[13] = tested on: Vero E6; assay: as above
[14] = tested on: Caco-2; assay: as above
[15] = tested on: HepG2; assay: as above

| Structure (SMILES) | relative viability EC50 [1] | relative viability EC50 [2] | relative viability EC50 [3] | relative viability EC50 [4] | relative viability EC50 [5] | cell viability ([6]; 1 nM) | cell viability ([6]; 10 nM) | cell viability ([6]; 100 nM) | cell viability ([6]; 1000 nM) | cell viability ([6]; 10000 nM) | cell viability ([7]; 1 nM) | cell viability ([7]; 10 nM) | cell viability ([7]; 100 nM) | cell viability ([7]; 1000 nM) | cell viability ([7]; 10000 nM) | cell viability ([8]; 1 nM) | cell viability ([8]; 10 nM) | cell viability ([8]; 100 nM) | cell viability ([8]; 1000 nM) | cell viability ([8]; 10000 nM) | cell viability ([9]; 1 nM) | cell viability ([9]; 10 nM) | cell viability ([9]; 100 nM) | cell viability ([9]; 1000 nM) | cell viability ([9]; 10000 nM) | cell viability ([10]; 1 nM) | cell viability ([10]; 10 nM) | cell viability ([10]; 100 nM) | cell viability ([10]; 1000 nM) | cell viability ([10]; 10000 nM) | drug sensitivity score [11] | drug sensitivity score [12] | drug sensitivity score [13] | drug sensitivity score [14] | drug sensitivity score [15] |
| --- | --- | --- | --- | --- | --- | --- | --- | --- | --- | --- | --- | --- | --- | --- | --- | --- | --- | --- | --- | --- | --- | --- | --- | --- | --- | --- | --- | --- | --- | --- | --- | --- | --- | --- | --- |
| CNCC(O)c1ccc(O)c(O)c1 (racemic) [DL-Adrenaline] | > 10 µM | > 10 µM | > 10 µM | > 10 µM | > 10 µM | 99.8% | 98.3% | 92.4% | 92.7% | 105% | 98.7% | 99.6% | 89% | 99.9% | 103% | 95.3% | 93.2% | 96.6% | 93.8% | 104% | 94.8% | 97.8% | 90.1% | 93.7% | 95.7% | 105% | 90.8% | 110% | 99.4% | 113% | 0 | 0 | 0 | 0 | 0 |
| N[C@H]1C[C@@H]1c1ccccc1 (racemic) [tranylcypromine] | > 10 µM | > 10 µM | > 10 µM | > 10 µM | > 10 µM | 92.5% | 97.7% | 97.6% | 100% | 99.7% | 96.6% | 102% | 97.7% | 103% | 103% | 100% | 99.8% | 93.3% | 97.1% | 108% | 90.7% | 106% | 93.7% | 104% | 104% | 104% | 103% | 97% | 98.5% | 100% | 0 | 0 | 0 | 0 | 0 |
| O=C(c1ccc(F)cc1)C1CCN(CCCCc2ccccc2)CC1 [4-(4-fluorobenzoyl)-1-(4-phenylbutyl)-piperidine] | > 10 µM | > 10 µM | > 10 µM | > 10 µM | > 10 µM | 104% | 106% | 87.9% | 106% | 85.8% | 99.4% | 96.8% | 96.8% | 95.9% | 98.2% | 103% | 105% | 102% | 98.9% | 95.7% | 98.9% | 99.6% | 106% | 90.4% | 94.9% | 101% | 96% | 95.2% | 101% | 79.4% | 0.1 | 0 | 0 | 0 | 0.6 |
| OCc1cncc(F)c1 [5-fluoro-3-pyridyl-methanol] | > 10 µM | > 10 µM | > 10 µM | > 10 µM | > 10 µM | 101% | 97.2% | 95.1% | 99.3% | 99.9% | 98.4% | 105% | 98.4% | 104% | 97.8% | 104% | 104% | 102% | 98.8% | 105% | 96% | 106% | 102% | 107% | 106% | 106% | 104% | 109% | 97.2% | 102% | 0 | 0 | 0 | 0 | 0 |
| N[C@@H](Cc1c[nH]c2ccc(O)cc12)C(=O)O [5-hydroxytryptophan] | > 10 µM | > 10 µM | > 10 µM | > 10 µM | > 10 µM | 93.6% | 94.7% | 94.1% | 94.4% | 107% | 100% | 97.3% | 99.6% | 94.2% | 96.6% | 98.4% | 95.7% | 100% | 92.3% | 95.5% | 93.3% | 94.5% | 92.5% | 88.8% | 103% | 102% | 97.4% | 105% | 106% | 94.9% | 0 | 0 | 0 | 0 | 0 |
| NC1(C(=O)O)CC1 [ACPC] | > 10 µM | > 10 µM | > 10 µM | > 10 µM | > 10 µM | 98.6% | 93.4% | 93.1% | 102% | 96.8% | 93.8% | 96% | 95.9% | 96.3% | 98.1% | 102% | 96.9% | 96.7% | 94.5% | 98.4% | 92.3% | 98.6% | 104% | 87.7% | 105% | 103% | 98.9% | 90% | 99.5% | 93.4% | 0 | 0 | 0 | 0 | 0 |
| NS(=O)(=O)c1nn2cc(-c3ccccc3)nc2s1 [AEG3482] | > 10 µM | > 10 µM | > 10 µM | > 10 µM | > 10 µM | 98% | 104% | 95.8% | 95.1% | 109% | 101% | 98.1% | 97.8% | 99.2% | 100% | 97.2% | 97% | 96.1% | 94.8% | 92.1% | 99.9% | 99% | 102% | 88.4% | 89.4% | 87.5% | 90.2% | 93% | 97% | 94.6% | 0 | 0 | 0 | 0.4 | 0 |
| O=C(Nc1cccc(C(F)(F)F)c1)Nc1cc(S(=O)(=O)NC2CC2)ccc1-c1ccsc1 [AGI-6780] | > 10 µM | > 10 µM | > 10 µM | > 10 µM | > 10 µM | 96.9% | 90.4% | 99% | 103% | 110% | 97.6% | 98.9% | 101% | 92.3% | 87.5% | 95.1% | 97.4% | 93.5% | 97.2% | 106% | 94.2% | 93% | 99.8% | 97.4% | 85.7% | 93.3% | 103% | 94% | 105% | 86.5% | 0 | 0.4 | 0 | 0.4 | 0.1 |
| CN[C@@H](C)C(=O)N[C@H](C(=O)N1CCC[C@H]1C(=O)N[C@H]1c2ccccc2C[C@H]1OCC#CC#CCO[C@@H]1Cc2ccccc2[C@@H]1NC(=O)[C@@H]1CCCN1C(=O)[C@@H](NC(=O)[C@H](C)NC)C1CCCCC1)C1CCCCC1 [AZD5582] | 0.927 µM | > 10 µM | > 10 µM | > 10 µM | > 10 µM | 102% | 99.8% | 85.8% | 73.2% | 37.7% | 98.3% | 104% | 98.4% | 101% | 91.1% | 100% | 106% | 119% | 95.2% | 136% | 93.3% | 103% | 102% | 93.4% | 82.4% | 107% | 98.8% | 94% | 106% | 87.8% | 6.8 | 0 | 0 | 1.1 | 0 |
| CSc1ccc(C(=O)N[C@@H]2CCCC[C@@H]2NC(=O)CNC(=O)c2cc(C(F)(F)F)ccc2NC(=O)NC(C)C)cc1 [BMS-CCR2-22] | > 10 µM | > 10 µM | > 10 µM | > 10 µM | > 10 µM | 112% | 94% | 98.1% | 101% | 101% | 102% | 101% | 96.5% | 103% | 94.5% | 101% | 102% | 102% | 101% | 95.1% | 93.2% | 87.7% | 94.5% | 100% | 89.6% | 108% | 95.8% | 101% | 98% | 88% | 0 | 0 | 0 | 0 | 0.1 |
| c1ccc2nc(C3=NCCN3)ccc2c1 [BU-224] | > 10 µM | > 10 µM | > 10 µM | > 10 µM | > 10 µM | 98.5% | 106% | 106% | 89.3% | 119% | 99.8% | 98.8% | 99.2% | 95.6% | 98.8% | 98.7% | 99.5% | 97.3% | 102% | 99% | 97.7% | 96.9% | 101% | 88.7% | 90.2% | 104% | 94.3% | 94.2% | 99.8% | 87.2% | 0 | 0 | 0 | 0.3 | 0.1 |
| CO/N=C(\C(=O)N[C@@H]1C(=O)N2C(C(=O)O)=C(Cn3ccc(=N)n3CCO)CS[C@H]12)c1csc(N)n1 [Cefoselis sulfate] | > 10 µM | > 10 µM | > 10 µM | > 10 µM | > 10 µM | 95.8% | 100% | 95.7% | 96.1% | 104% | 96.6% | 103% | 93.8% | 102% | 101% | 103% | 102% | 105% | 97.2% | 101% | 106% | 97.6% | 90.7% | 106% | 93.8% | 102% | 116% | 91.4% | 103% | 101% | 0 | 0 | 0 | 0 | 0 |
| O=[N+]([O-])c1cc2nc(O)c(O)nc2cc1[N+](=O)[O-] [DNQX] | > 10 µM | > 10 µM | > 10 µM | > 10 µM | > 10 µM | 96.8% | 96.3% | 100% | 97.4% | 94.3% | 104% | 96.8% | 101% | 93.6% | 98% | 86.8% | 96.1% | 89.2% | 95.8% | 102% | 86.4% | 94.2% | 97.4% | 89.3% | 94.4% | 102% | 101% | 95.6% | 101% | 102% | 0 | 0 | 0 | 0 | 0 |
| CCC(C)(C)C(=O)C(=O)N1CCC[C@H]1C(=O)OCCCc1cccnc1 [GPI-1046] | > 10 µM | > 10 µM | > 10 µM | > 10 µM | > 10 µM | 101% | 88.9% | 106% | 103% | 113% | 97.6% | 95.3% | 91.7% | 102% | 104% | 100% | 96.4% | 100% | 91.6% | 96.9% | 96.5% | 96% | 89.5% | 105% | 105% | 86.9% | 98.6% | 108% | 90.7% | 91.4% | 0 | 0 | 0 | 0 | 0.6 |
